According to ChEMBL document CHEMBL1201862, “PubChem BioAssay data set” (2004):
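Grown in 96-well plates, cells were treated for 48 hours with each compound at five concentrations. Insufficient inhibition: endpoint recorded as highest concentration tested. GI50 is the concentration that inhibits growth by half.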 The source made the active and inactive calls. No stated cut-off is given here; in the data, active = GI50 up to about 1.1 µM and inactive = higher.

Key:
Test in all cases: growth of human tumour cells (NCI), 48 h
SF-268 = system: SF-268
SK-MEL-5 = system: SK-MEL-5
HL-60 = system: HL-60
SW-620 = system: SW-620
SNB-75 = system: SNB-75
Hs-578T = system: Hs-578T
CAKI-1 = system: CAKI-1
LOX IMVI = system: LOX IMVI
IGROV-1 = system: IGROV-1
SF-295 = system: SF-295
786-0 = system: 786-0
MDA-MB-231 = system: MDA-MB-231
TK-10 = system: TK-10
UACC-257 = system: UACC-257
UACC-62 = system: UACC-62
K562 = system: K562
SR = system: SR
ACHN = system: ACHN
NCI-H460 = system: NCI-H460
NCI-H23 = system: NCI-H23
SK-OV-3 = system: SK-OV-3
RXF 393 = system: RXF 393
MDA-MB-435 = system: MDA-MB-435
NCI-H226 = system: NCI-H226
PC-3 = system: PC-3
CCRF-CEM = system: CCRF-CEM
OVCAR-8 = system: OVCAR-8
HT-29 = system: HT-29
BT-549 = system: BT-549
MCF7 = system: MCF7
HOP-62 = system: HOP-62
T47D = system: T47D
SN12C = system: SN12C
NCI/ADR-RES = system: NCI/ADR-RES
HCT-15 = system: HCT-15
M14 = system: M14
NCI-H522 = system: NCI-H522
COLO 205 = system: COLO 205
RPMI-8226 = system: RPMI-8226
HCT-116 = system: HCT-116
HCC 2998 = system: HCC 2998
OVCAR-3 = system: OVCAR-3
MDA-N = system: MDA-N
HOP-92 = system: HOP-92
KM12 = system: KM12
Malme-3M = system: Malme-3M
DU-145 = system: DU-145
SNB-19 = system: SNB-19
OVCAR-4 = system: OVCAR-4
A549 = system: A549
EKVX = system: EKVX
SK-MEL-28 = system: SK-MEL-28
A498 = system: A498
OVCAR-5 = system: OVCAR-5
MOLT-4 = system: MOLT-4
U-251 = system: U-251
UO-31 = system: UO-31
SF-539 = system: SF-539
SK-MEL-2 = system: SK-MEL-2

`N=c1oc2c(Cl)cc(Cl)cc2cc1C(=O)Nc1cccc2ccccc12` was tested, and the GI50 (SF-268) was 18 µM (inactive), the GI50 (SK-MEL-5) was 37.9 µM (inactive) and the GI50 (HL-60) was 18.8 µM (inactive). The GI50 (SW-620) was 3.62 µM (inactive), the GI50 (SNB-75) was 3.2 µM (inactive) and the GI50 (Hs-578T) was 7.94 µM (inactive). The GI50 (CAKI-1) was 10.6 µM (inactive), the GI50 (LOX IMVI) was 4.7 µM (inactive) and the GI50 (IGROV-1) was 5.32 µM (inactive). For the same compound, the GI50 (SF-295) was 18.7 µM (inactive), the GI50 (786-0) was 5.71 µM (inactive) and the GI50 (MDA-MB-231) was 3.78 µM (inactive). The GI50 (TK-10) was 2.33 µM (inactive), the GI50 (UACC-257) was > 100 µM (inactive) and the GI50 (UACC-62) was 40.6 µM (inactive). The GI50 (K562) was 13.3 µM (inactive), the GI50 (SR) was 12.4 µM (inactive) and the GI50 (ACHN) was 3.52 µM (inactive). For the same compound, the GI50 (NCI-H460) was 5.01 µM (inactive), the GI50 (NCI-H23) was 16.5 µM (inactive) and the GI50 (SK-OV-3) was 15.9 µM (inactive). For the same compound, the GI50 (RXF 393) was 16.7 µM (inactive), the GI50 (MDA-MB-435) was 27 µM (inactive) and the GI50 (NCI-H226) was 19.3 µM (inactive). The GI50 (PC-3) was 24.2 µM (inactive), the GI50 (CCRF-CEM) was 3.57 µM (inactive) and the GI50 (OVCAR-8) was 3.44 µM (inactive). The GI50 (HT-29) was 39.4 µM (inactive), the GI50 (BT-549) was 30.1 µM (inactive) and the GI50 (MCF7) was > 53.6 µM (inactive). For the same compound, the GI50 (HOP-62) was 7.98 µM (inactive), the GI50 (T47D) was 5.2 µM (inactive) and the GI50 (SN12C) was 3.58 µM (inactive). The GI50 (NCI/ADR-RES) was 4.93 µM (inactive), the GI50 (HCT-15) was 10.3 µM and the GI50 (M14) was > 44.7 µM (inactive). The GI50 (NCI-H522) was 8.17 µM (inactive), the GI50 (COLO 205) was 7.57 µM (inactive) and the GI50 (RPMI-8226) was 10 µM (inactive). For the same compound, the GI50 (HCT-116) was 4.79 µM (inactive), the GI50 (HCC 2998) was 6.93 µM (inactive) and the GI50 (OVCAR-3) was 4.61 µM (inactive). For the same compound, the GI50 (MDA-N) was 33 µM (inactive), the GI50 (HOP-92) was 15.3 µM (inactive) and the GI50 (KM12) was 53.8 µM (inactive). For the same compound, the GI50 (Malme-3M) was 26.3 µM (inactive), the GI50 (DU-145) was > 89.9 µM (inactive) and the GI50 (SNB-19) was 19.5 µM (inactive). The GI50 (OVCAR-4) was 2.49 µM (inactive), the GI50 (A549) was 6.55 µM (inactive) and the GI50 (EKVX) was 8.93 µM (inactive). For the same compound, the GI50 (SK-MEL-28) was > 80.9 µM (inactive), the GI50 (A498) was 7.62 µM (inactive) and the GI50 (OVCAR-5) was 21.7 µM (inactive). For the same compound, the GI50 (MOLT-4) was 7.48 µM (inactive), the GI50 (U-251) was 2.73 µM (inactive) and the GI50 (UO-31) was 10.2 µM (inactive).

For `NC(Cc1c[nH]c2ccccc12)P(=O)(O)O` (stereo not given), the GI50 (SF-268) was > 100 µM (inactive), the GI50 (SK-MEL-5) was > 100 µM (inactive) and the GI50 (HL-60) was > 100 µM (inactive). For the same compound, the GI50 (SW-620) was > 100 µM (inactive), the GI50 (SNB-75) was > 100 µM (inactive) and the GI50 (Hs-578T) was > 100 µM (inactive). The GI50 (CAKI-1) was > 100 µM (inactive), the GI50 (IGROV-1) was > 100 µM (inactive) and the GI50 (SF-295) was > 100 µM (inactive). The GI50 (786-0) was > 100 µM (inactive), the GI50 (MDA-MB-231) was > 100 µM (inactive) and the GI50 (TK-10) was > 100 µM (inactive). For the same compound, the GI50 (UACC-257) was > 100 µM (inactive), the GI50 (UACC-62) was > 100 µM (inactive) and the GI50 (K562) was > 100 µM (inactive). For the same compound, the GI50 (SR) was > 100 µM (inactive), the GI50 (ACHN) was > 100 µM (inactive) and the GI50 (NCI-H460) was > 100 µM (inactive). For the same compound, the GI50 (NCI-H23) was > 100 µM (inactive), the GI50 (SK-OV-3) was > 100 µM (inactive) and the GI50 (RXF 393) was > 100 µM (inactive). For the same compound, the GI50 (MDA-MB-435) was > 100 µM (inactive), the GI50 (NCI-H226) was > 100 µM (inactive) and the GI50 (PC-3) was > 100 µM (inactive). The GI50 (CCRF-CEM) was > 100 µM (inactive), the GI50 (OVCAR-8) was > 100 µM (inactive) and the GI50 (HT-29) was > 100 µM (inactive). For the same compound, the GI50 (BT-549) was > 100 µM (inactive), the GI50 (MCF7) was > 100 µM (inactive) and the GI50 (HOP-62) was > 100 µM (inactive). For the same compound, the GI50 (T47D) was > 100 µM (inactive), the GI50 (SN12C) was > 100 µM (inactive) and the GI50 (NCI/ADR-RES) was > 100 µM (inactive). The GI50 (HCT-15) was greater than 100 µM, the GI50 (SF-539) was > 100 µM (inactive) and the GI50 (M14) was > 100 µM (inactive). For the same compound, the GI50 (NCI-H522) was > 100 µM (inactive), the GI50 (COLO 205) was > 100 µM (inactive) and the GI50 (RPMI-8226) was > 100 µM (inactive). For the same compound, the GI50 (HCT-116) was > 100 µM (inactive), the GI50 (HCC 2998) was > 100 µM (inactive) and the GI50 (OVCAR-3) was > 100 µM (inactive). For the same compound, the GI50 (MDA-N) was > 100 µM (inactive), the GI50 (HOP-92) was > 10 µM (inactive) and the GI50 (KM12) was > 100 µM (inactive). The GI50 (Malme-3M) was > 100 µM (inactive), the GI50 (DU-145) was > 100 µM (inactive) and the GI50 (SNB-19) was > 100 µM (inactive). The GI50 (SK-MEL-2) was > 100 µM (inactive), the GI50 (OVCAR-4) was > 100 µM (inactive) and the GI50 (A549) was > 100 µM (inactive). For the same compound, the GI50 (EKVX) was > 100 µM (inactive), the GI50 (SK-MEL-28) was > 100 µM (inactive) and the GI50 (A498) was > 100 µM (inactive). The GI50 (OVCAR-5) was > 100 µM (inactive), the GI50 (MOLT-4) was > 100 µM (inactive) and the GI50 (U-251) was > 100 µM (inactive). The GI50 (UO-31) was > 100 µM (inactive).
